The target of this experiment is hDPP-IV (Homo sapiens, UniProt P27487). The experiment is described as follows: DPP-IV inhibitory assay. In kind it is biochemical.

Peptide text beside a SMILES is read from it.

In article PMC10601436 (ACS Omega, 2023) one finds IC50 data, which are given here for 41 compounds.

Sequence of hDPP-IV (P27487 whole entry): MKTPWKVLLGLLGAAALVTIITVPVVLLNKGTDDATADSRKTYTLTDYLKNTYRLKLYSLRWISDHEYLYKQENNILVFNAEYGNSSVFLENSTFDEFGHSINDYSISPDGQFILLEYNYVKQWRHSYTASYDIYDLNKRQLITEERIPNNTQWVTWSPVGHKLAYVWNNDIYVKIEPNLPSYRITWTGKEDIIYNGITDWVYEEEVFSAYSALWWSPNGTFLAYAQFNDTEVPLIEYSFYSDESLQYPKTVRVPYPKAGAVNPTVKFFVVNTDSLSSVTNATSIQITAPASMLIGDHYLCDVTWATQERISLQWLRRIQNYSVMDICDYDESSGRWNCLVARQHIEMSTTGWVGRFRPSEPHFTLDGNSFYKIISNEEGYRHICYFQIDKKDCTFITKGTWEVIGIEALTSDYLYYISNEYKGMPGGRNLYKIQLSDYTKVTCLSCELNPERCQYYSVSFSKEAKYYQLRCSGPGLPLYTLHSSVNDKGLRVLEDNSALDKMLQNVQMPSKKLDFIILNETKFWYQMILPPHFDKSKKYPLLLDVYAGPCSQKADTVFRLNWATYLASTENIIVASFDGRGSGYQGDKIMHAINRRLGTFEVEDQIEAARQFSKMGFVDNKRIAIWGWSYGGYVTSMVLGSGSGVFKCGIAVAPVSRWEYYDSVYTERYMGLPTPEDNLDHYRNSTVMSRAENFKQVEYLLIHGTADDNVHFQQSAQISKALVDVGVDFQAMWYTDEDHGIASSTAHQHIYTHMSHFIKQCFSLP

Usually IC50 stands for the concentration that inhibits the measured activity by half. `C[C@H](NC(=O)[C@@H](N)Cc1c[nH]c2ccccc12)C(=O)N1CCC[C@H]1C(=O)O` [WAP] (H-Trp-Ala-Pro-OH) came in with an IC50 of 441 µM.
Next, `N[C@@H](Cc1c[nH]c2ccccc12)C(=O)N1CCC[C@H]1C(=O)NCC(=O)O` [WPG] (H-Trp-Pro-Gly-OH): 135 µM; `N=C(N)NCCC[C@H](NC(=O)[C@@H](N)Cc1c[nH]c2ccccc12)C(=O)N[C@@H](Cc1ccccc1)C(=O)O` [WRF] (H-Trp-Arg-Phe-OH): 257 µM; `N[C@@H](Cc1c[nH]c2ccccc12)C(=O)N1CCC[C@H]1C(=O)N[C@@H](Cc1c[nH]c2ccccc12)C(=O)O` [WPW] (H-Trp-Pro-Trp-OH): 183 µM.
To `CC(C)[C@H](NC(=O)[C@@H](N)Cc1c[nH]c2ccccc12)C(=O)N[C@@H](CO)C(=O)O` [WVS] (H-Trp-Val-Ser-OH) belongs 247 µM.
To `CC(C)C[C@H](NC(=O)[C@H](CCCNC(=N)N)NC(=O)[C@@H](N)Cc1c[nH]c2ccccc12)C(=O)O` [WRL] (H-Trp-Arg-Leu-OH) belongs 151 µM; to `N=C(N)NCCC[C@H](NC(=O)[C@@H](N)Cc1c[nH]c2ccccc12)C(=O)NCC(=O)O` [WRG] (H-Trp-Arg-Gly-OH), 270 µM; to `CC(C)[C@H](NC(=O)[C@@H](N)Cc1c[nH]c2ccccc12)C(=O)N[C@@H](CC(N)=O)C(=O)O` [WVN] (H-Trp-Val-Asn-OH), 373 µM.
In turn, `CSCC[C@H](NC(=O)[C@@H]1CCCN1C(=O)[C@@H](N)Cc1c[nH]c2ccccc12)C(=O)O` [WPM] (H-Trp-Pro-Met-OH) gave an IC50 of 219 µM. Against the preceding compound, the IC50 is about 1.7-fold lower.
To `N=C(N)NCCC[C@H](NC(=O)[C@@H](N)Cc1c[nH]c2ccccc12)C(=O)N[C@@H](CC(N)=O)C(=O)O` [WRN] (H-Trp-Arg-Asn-OH) belongs 313 µM; to `CSCC[C@H](NC(=O)[C@@H](NC(=O)[C@@H](N)Cc1c[nH]c2ccccc12)C(C)C)C(=O)O` [WVM] (H-Trp-Val-Met-OH), 317 µM; to `N[C@@H](Cc1c[nH]c2ccccc12)C(=O)N1CCC[C@H]1C(=O)N[C@@H](CS)C(=O)O` [WPC] (H-Trp-Pro-Cys-OH), 739 µM.
To `CC(C)[C@H](NC(=O)[C@@H](N)Cc1c[nH]c2ccccc12)C(=O)N[C@@H](Cc1ccc(O)cc1)C(=O)O` [WVY] (H-Trp-Val-Tyr-OH) belongs 215 µM; to `N=C(N)NCCC[C@H](NC(=O)[C@@H](N)Cc1c[nH]c2ccccc12)C(=O)N[C@@H](CCC(=O)O)C(=O)O` [WRE] (H-Trp-Arg-Glu-OH), 160 µM; to `CC(C)[C@H](NC(=O)[C@@H]1CCCN1C(=O)[C@@H](N)Cc1c[nH]c2ccccc12)C(=O)O` [WPV] (H-Trp-Pro-Val-OH), 511 µM.
To `NC(=O)CC[C@H](NC(=O)[C@@H]1CCCN1C(=O)[C@@H](N)Cc1c[nH]c2ccccc12)C(=O)O` [WPQ] (H-Trp-Pro-Gln-OH) belongs 196 µM; to `N[C@@H](Cc1c[nH]c2ccccc12)C(=O)N1CCC[C@H]1C(=O)N1CCC[C@H]1C(=O)O` [WPP] (H-Trp-Pro-Pro-OH), 303 µM.
`CC(C)C[C@H](NC(=O)[C@@H]1CCCN1C(=O)[C@@H](N)Cc1c[nH]c2ccccc12)C(=O)O` [WPL] (H-Trp-Pro-Leu-OH) yielded an IC50 of 461 µM.
Next, `CC(C)C[C@H](NC(=O)[C@H](C)NC(=O)[C@@H](N)Cc1c[nH]c2ccccc12)C(=O)O` [WAL] (H-Trp-Ala-Leu-OH): 260 µM; `C[C@H](NC(=O)[C@@H](N)Cc1c[nH]c2ccccc12)C(=O)N[C@@H](CCCNC(=N)N)C(=O)O` [WAR] (H-Trp-Ala-Arg-OH): 665 µM.
To `C[C@H](NC(=O)[C@@H](N)Cc1c[nH]c2ccccc12)C(=O)N[C@@H](Cc1ccc(O)cc1)C(=O)O` [WAY] (H-Trp-Ala-Tyr-OH) belongs 117 µM; to `N=C(N)NCCC[C@H](NC(=O)[C@@H](N)Cc1c[nH]c2ccccc12)C(=O)N[C@@H](CO)C(=O)O` [WRS] (H-Trp-Arg-Ser-OH), 265 µM.
Next, `CSCC[C@H](NC(=O)[C@H](C)NC(=O)[C@@H](N)Cc1c[nH]c2ccccc12)C(=O)O` [WAM] (H-Trp-Ala-Met-OH): 330 µM.
On to `N[C@@H](Cc1c[nH]c2ccccc12)C(=O)N1CCC[C@H]1C(=O)N[C@@H](Cc1ccc(O)cc1)C(=O)O` [WPY] (H-Trp-Pro-Tyr-OH), for which the IC50 is 304 µM.
Next, `CC[C@H](C)[C@H](NC(=O)[C@H](C)NC(=O)[C@@H](N)Cc1c[nH]c2ccccc12)C(=O)O` [WAI] (H-Trp-Ala-Ile-OH): 199 µM; `CC(C)[C@H](NC(=O)[C@H](CCCNC(=N)N)NC(=O)[C@@H](N)Cc1c[nH]c2ccccc12)C(=O)O` [WRV] (H-Trp-Arg-Val-OH): 541 µM.
`N=C(N)NCCC[C@H](NC(=O)[C@@H](N)Cc1c[nH]c2ccccc12)C(=O)N1CCC[C@H]1C(=O)O` [WRP] (H-Trp-Arg-Pro-OH): the IC50 worked out at 742 µM.
The compound `C[C@H](NC(=O)[C@@H](N)Cc1c[nH]c2ccccc12)C(=O)N[C@H](C(=O)O)[C@@H](C)O` [WAT] (H-Trp-Ala-Thr-OH) had an IC50 of 296 µM.
To `C[C@H](NC(=O)[C@@H]1CCCN1C(=O)[C@@H](N)Cc1c[nH]c2ccccc12)C(=O)O` [WPA] (H-Trp-Pro-Ala-OH) belongs 206 µM; to `N=C(N)NCCC[C@H](NC(=O)[C@@H](N)Cc1c[nH]c2ccccc12)C(=O)N[C@@H](Cc1ccc(O)cc1)C(=O)O` [WRY] (H-Trp-Arg-Tyr-OH), 297 µM.
To `C[C@H](NC(=O)[C@H](C)NC(=O)[C@@H](N)Cc1c[nH]c2ccccc12)C(=O)O` [WAA] (H-Trp-Ala-Ala-OH) belongs 275 µM; to `CC[C@H](C)[C@H](NC(=O)[C@H](CCCNC(=N)N)NC(=O)[C@@H](N)Cc1c[nH]c2ccccc12)C(=O)O` [WRI] (H-Trp-Arg-Ile-OH), 330 µM.
With `C[C@H](NC(=O)[C@@H](N)Cc1c[nH]c2ccccc12)C(=O)N[C@@H](CC(=O)O)C(=O)O` [WAD] (H-Trp-Ala-Asp-OH), half-maximal inhibition (IC50) required 433 µM.
To `C[C@H](NC(=O)[C@@H](N)Cc1c[nH]c2ccccc12)C(=O)NCC(=O)O` [WAG] (H-Trp-Ala-Gly-OH) belongs 352 µM.
Turning to `N[C@@H](Cc1c[nH]c2ccccc12)C(=O)N1CCC[C@H]1C(=O)N[C@@H](CCC(=O)O)C(=O)O` [WPE] (H-Trp-Pro-Glu-OH), half-maximal inhibition (IC50) was put at 353 µM. This IC50 and that of the compound before are within 1.5-fold of each other.
In the case of `CC(C)[C@H](NC(=O)[C@H](C)NC(=O)[C@@H](N)Cc1c[nH]c2ccccc12)C(=O)O` [WAV] (H-Trp-Ala-Val-OH), the IC50 turned out to be 250 µM. This IC50 and that of the compound before are within 1.5-fold of each other.
Next, `C[C@H](NC(=O)[C@@H](N)Cc1c[nH]c2ccccc12)C(=O)N[C@@H](CC(N)=O)C(=O)O` [WAN] (H-Trp-Ala-Asn-OH): 302 µM; `N=C(N)NCCC[C@H](NC(=O)[C@@H](N)Cc1c[nH]c2ccccc12)C(=O)N[C@@H](CC(=O)O)C(=O)O` [WRD] (H-Trp-Arg-Asp-OH): 204 µM.
Next, `C[C@H](NC(=O)[C@@H](N)Cc1c[nH]c2ccccc12)C(=O)N[C@@H](CCC(=O)O)C(=O)O` [WAE] (H-Trp-Ala-Glu-OH): 462 µM; `CC(C)[C@H](NC(=O)[C@@H](NC(=O)[C@@H](N)Cc1c[nH]c2ccccc12)C(C)C)C(=O)O` [WVV] (H-Trp-Val-Val-OH): 275 µM.
`CC(C)[C@H](N)C(=O)N1CCC[C@H]1C(=O)N[C@H](C(=O)N1CCC[C@H]1C(=O)N[C@@H](Cc1c[nH]cn1)C(=O)O)C(C)C` [VPVPH] (H-VPVPH-OH): the IC50 came to 51.1 µM.
